In brackets after ≈: the same amount, converted by molar mass.
Columns and labels:
[1] = test system: skin wound; assay: Punch biopsy wound healing model; type: in vivo, C57BL/6 mice; settings: single topical dose at time of wounding; on average; saline control greater than 13 days
Source text: A defined wound is created with a 4 mm Accuderm human punch biopsy kit (Accuderm, Ft Lauderdale, Fla.) in C57BL/6 mice. Specifically, the loose skin on the back of a mouse was brought together and, under anesthetic, a single punch was made through either side to create two wounds through the skin alone—without affecting underlying tissue. Immediately post-wounding, the wounds are either treated topically with normal saline (to serve as the non-treated control group) or with a compound of formula (I). Each day the wounds are digitally photographed and wound areas are determined by computer integration of the photographs. Wound area at the time of wounding (day 0) is arbitrarily set to a relative value of 1 for all wounds; such that subsequent wound areas are converted to relative wound areas by dividing the wound area at day n by the wound area at day zero.

[2] = Pharmacokinetics: plasma and brain levels after intravenous administration; type: in vivo, C57BL/6 mice; settings: mice
Method: Mice are administered intravenously 10 mg/kg ([…]) of uric acid as a reference compound and equimolar doses of its analogs (sUA4-2,6,8 trithio uric acid, 12.9 mg/kg; mUA2-1,7 dimethyl uric acid, 11.7 mg/kg; sUA2-6,8 dithio uric acid, 11.9 mg/kg). Three month-old male C57BL/6 mice are injected with a compound and are euthanized 15, 30, 60 or 120 min later (1 mouse/time point/compound). Blood and brain tissues are rapidly removed, frozen on dry ice and kept at −80° C. before quantification of uric acid analogs. Plasma and cerebral cortical tissues are extracted in 10 volumes of 0.5 M perchloric acid and 1 mM ethylenediamine tetraacetic acid (EDTA). Levels of uric acid analogs in the extracts are quantified by HPLC methods employing a 25 cm RP C18 column, 25 mM KH2PO4 buffer (pH=4.6) with 1 ml/min flow rate and UV diode array detection.
Mice that are administered mUA2, sUA2 or sUA4 intravenously are euthanized at increasing time points (15, 30, 60 and 120 min) and levels of the compounds in plasma and brain tissue are measured.

[3] = Water solubility in cold water; type: physicochemical
Method: Commercially available derivatives are obtained from Sigma-Aldrich (St. Louis, Mo.). The methods used for the synthesis of methyl- and sulfur-derivatives of uric acid are similar to those described previously (Beaman et al., J. Org. Chem., 27, 986-990 (1962) and Maruyama et al., Nucleosides, Nucleotides, Nucleic Acids, 19, 1193-1203 (2000)) and structures are confirmed by ^13C nuclear magnetic resonance (NMR) and ultra-violet (UV) spectral analyses. Uric acid analogs are assayed by high performance liquid chromatography (HPLC) and found to be of >97% purity.

[4] = test system: cultured hippocampal neurons; assay: Oxygen and glucose deprivation (OGD) of cultured hippocampal neurons; type: cell-based, rat; settings: compared to neurons in control cultures; FIG. 2
Method: FIG. 2 illustrates that compounds of formula (I) protect cultured hippocampal neurons against ischemia-like conditions in an embodiment of the invention. Neuronal survival is quantified and values are the mean and SEM (n=8-10 cultures). *p<0.05 compared to the vehicle/OGD cultures. Synaptosomes are prepared from the cerebral cortex of 2-3 month-old adult male Sprague-Dawley rats and are cryopreserved using methods described previously (Begley et al., Brain Res. Protoc., 3, 76-82 (1998)). After thawing, cryopreserved synaptosomes are washed twice with Locke's buffer and plated in 24-well plates at a protein concentration of 250 μg per well. After a 30 min period to permit attachment of the synaptosomes to the substrate, synaptomoses are incubated for 1 h with compounds of formula (I) (1-10 μM), and then exposed for 4 h to freshly prepared 50 μM Fe^2+ (FeSO4). After an additional 30 min incubation in the presence of 10 μM dihydrorhodamine 123 (DHR), a probe for ROS which fluoresces when oxidized (Keller et al., J. Neurochem., 69, 273-284 (1997)), the synaptosomes are washed twice with Locke's buffer and levels of fluorescence are quantified using a fluorescence plate reader (488 nm excitation and 510 emission wavelengths). Fluorescence values for wells exposed to experimental treatments are expressed as a percentage of the mean value for untreated control wells. […] Methods for preparation and maintenance of cultures of PC12 cells and primary embryonic rat hippocampal neurons have been described previously (Furukawa et al., J. Neurosci., 17, 8178-8186 (1997) and Chan et al., J. Biol. Chem., 279, 28733-28743 (2004)). Cells are plated into polyethylenimine-coated plastic 96-well culture plates containing Neurobasal medium with B27 supplements. Experiments are performed in 7-8 day-old cultures (hippocampal neurons) or Dulbecco's modified eagle's medium (DMEM) with 10% fetal bovine serum (PC12 cells). […] Cell viability is quantified by counting viable neurons in premarked microscope fields prior to and following experimental treatment and then calculating percent survival.

[5] = test system: mouse model of focal ischemic stroke; assay: Focal cerebral ischemia-reperfusion (middle cerebral artery occlusion) model; type: in vivo, C57BL/6 mice; settings: administered 1 h after ischemia onset
Method: (§1) FIG. 4 illustrates that a compound of formula (I) improves functional outcome (e.g., ambulation) and reduces brain damage in a mouse model of focal ischemic stroke in an embodiment of the invention. In FIG. 4A neurological function is scored at 24, 48 and 72 hours post-stroke. In FIG. 4B infarct volume is quantified at 72 hours post-stroke. Values are the mean and SEM (n=8-12 mice). *p<0.001 compared to sham. +p<0.01 compared to vehicle.
as §1, with “FIG. 5” for “FIG. 4”, “that compounds” for “that a compound”, “(I) improve” for “(I) improves”, “outcome” for “outcome (e.g., ambulation)”, “FIG. 5A,” for “FIG. 4A”, “FIG. 5B,” for “FIG. 4B”
Three month-old male C57BL/6 mice are maintained on a 12 h light/12 h dark cycle with continuous access to food and water. The method for subjecting the mice to middle cerebral artery occlusion-reperfusion has been described previously (Arumugam et al., Am. J. Physiol. Heart Circ. Physiol., 287, H2555-2560 (2004)). Mice are anesthetized with isofluorane, a midline incision is made in the neck, and the left external carotid and pterygopalatine arteries are isolated and ligated with 5-0 silk thread. The internal carotid artery (ICA) is occluded at the peripheral site of the bifurcation of the internal carotid artery and the pterygopalatine artery with a small clip and the common carotid artery is ligated with 5-0 silk thread. The external carotid artery is cut, and a 6-0 nylon monofilament with a tip that is blunted (0.2-0.22 mm) with a coagulator is inserted into the external carotid artery. After the clip at the ICA is removed, the nylon thread is advanced into the middle cerebral artery until light resistance is felt. The nylon thread and the common carotid artery ligature are removed after 1 h of occlusion to initiate reperfusion. In the sham group, these arteries are visualized but not disturbed. Mice are administered either uric acid analogs of formula (I) or vehicle (dimethylsulfoxide) by infusion into the femoral vein (10 μl infused over a 2 min period) either 30 min prior to or 60 min after the onset of middle cerebral artery (MCA) occlusion. In a separate set of experiments anesthetized animals from all groups (4-6 mice per group) undergo cerebral blood flow (CBF) measurements using a laser Doppler perfusion monitor. All blood flow measurements are conducted with the mouse fixed in a plastic frame with the probe placed in the region of cerebral cortex perfused by the middle cerebral artery. These procedures are approved by the National Institute on Aging Animal Care and Use Committee.
The functional consequences of focal cerebral ischemia-reperfusion injury are evaluated by using a five-point neurological deficit score (0, no deficit; 1, failure to extend right paw; 2, circling to the right; 3, falling to the right; and 4, unable to walk spontaneously) and are assessed in a blinded fashion. At 72 h of reperfusion, the mice are killed with a lethal dose of isofluorane. The brains are immediately removed and placed into PBS (4° C.) for 15 min, and 2-mm coronal sections are cut with a tissue cutter. The brain sections are stained with 2% 2,3,5-triphenyltetrazolium chloride in phosphate buffer at 37° C. for 15 min. The stained sections are photographed, and the digitized images are used for analysis. The borders of the infarct in each brain slice are outlined and the area quantified using a NIH image 6.1 software. To correct for brain swelling, the infarct area is determined by subtracting the area of undamaged tissue in the left hemisphere from that of the intact contralateral hemisphere. Infarct volume is calculated by integration of infarct areas for all slices of each brain.

In the case of `O=c1[nH]c(=S)c2[nH]c(=S)[nH]c2[nH]1` [sUA2, 6,8 dithio uric acid], the “time to wound closure post wounding” value [1] is reported as 8 days, the Kp ([2]; male, C57BL/6, mouse, brain (cerebral cortical tissue) / plasma, early time points (15-30 min), read-out: brain tissue concentration as percentage of plasma concentration) is reported as roughly 0.1 and the “detection in the brain” value ([2]; equimolar to 10 mg/kg uric acid, 15, 30, 60 and 120 min) is reported as “detected in the brain at all time points examined”. The “brain concentration time course versus plasma” value ([2]; through the 120 min time point) was “remain elevated while plasma concentrations decrease progressively”, the solubility [3] was 2000 µg/mL (≈ 9.99 mM) and the “resistance to OGD induced death” value [4] was “significantly more resistant”. For the same molecule, the “functional outcome (neurological deficit score)” value ([5]; FIG. 5A) was “significantly improve functional outcome” and the brain damage ([5]; FIG. 5B) was “decrease brain damage”.

Reference: patent US20100105707A1, “METHOD OF TREATING OR PREVENTING OXIDATIVE STRESS-RELATED DISEASE” (The United States of America, priority 2006, published 2010)
